From ChEMBL document CHEMBL1909046, “DrugMatrix in vitro pharmacology data”

What was measured:
Cytochrome P450 3A4 = Cytochrome P450 3A4 (Homo sapiens, UniProt P08684); conditions: bti-tn-5b1-4; also: in other assays of this panel Not Active means under 50% inhibition at 10 µM
[1] = biological target: Platelet-activating factor receptor (Homo sapiens, UniProt P25105); format: tissue-based; also: in other assays of this panel Not Active means under 50% inhibition at 10 µM
[2] = biological target: C-C chemokine receptor type 2 (Homo sapiens, UniProt P41597); format: cell membranes, Membrane; conditions: cho-k1; also: in other assays of this panel Not Active means under 50% inhibition at 10 µM
[3] = biological target: Aldo-keto reductase family 1 member B1 (Rattus norvegicus, UniProt P07943); format: tissue-based, Lens of camera-type eye;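 also: inhibition of aldose reductase enzyme activity, measured with DL-glyceraldehyde as the substrate; in other assays of this panel Not Active means under 50% inhibition at 10 µM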
[4] = DRUGMATRIX: Sigma2 radioligand binding (ligand: [3H] Ifenprodil); format: cell membranes, Rattus norvegicus, Wistar, Brain, Membrane; conditions: Not Active = under 50% inhibition at 10 µM
[5] = biological target: T1, Muscarinic acetylcholine receptor M4 (Homo sapiens, UniProt P08173); format: cell membranes, CHO-K1, Membrane; conditions: cho-k1; also: in other assays of this panel Not Active means under 50% inhibition at 10 µM
T1 sequence (P08173 whole entry): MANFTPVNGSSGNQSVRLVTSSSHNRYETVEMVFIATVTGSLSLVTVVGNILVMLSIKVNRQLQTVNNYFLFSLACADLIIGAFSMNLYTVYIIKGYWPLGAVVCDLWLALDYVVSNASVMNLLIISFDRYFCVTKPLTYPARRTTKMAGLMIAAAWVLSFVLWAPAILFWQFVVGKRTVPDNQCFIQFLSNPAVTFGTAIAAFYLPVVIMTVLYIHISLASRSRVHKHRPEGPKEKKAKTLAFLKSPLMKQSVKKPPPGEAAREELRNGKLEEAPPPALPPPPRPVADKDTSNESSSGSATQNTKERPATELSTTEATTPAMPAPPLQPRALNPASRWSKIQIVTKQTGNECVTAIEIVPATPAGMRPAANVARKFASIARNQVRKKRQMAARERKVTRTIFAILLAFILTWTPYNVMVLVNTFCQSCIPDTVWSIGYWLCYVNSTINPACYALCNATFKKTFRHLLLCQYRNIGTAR

Carbonic anhydrase 2 = Carbonic anhydrase 2 (Homo sapiens, UniProt P00918); assay: DRUGMATRIX: Carbonic Anhydrase II enzyme inhibition (substrate: 4-Nitrophenyl acetate (4-NPA)); format: tissue-based; conditions: erythrocyte; Not Active = under 50% inhibition at 10 µM

Chain of Platelet-activating factor receptor (P25105 whole entry): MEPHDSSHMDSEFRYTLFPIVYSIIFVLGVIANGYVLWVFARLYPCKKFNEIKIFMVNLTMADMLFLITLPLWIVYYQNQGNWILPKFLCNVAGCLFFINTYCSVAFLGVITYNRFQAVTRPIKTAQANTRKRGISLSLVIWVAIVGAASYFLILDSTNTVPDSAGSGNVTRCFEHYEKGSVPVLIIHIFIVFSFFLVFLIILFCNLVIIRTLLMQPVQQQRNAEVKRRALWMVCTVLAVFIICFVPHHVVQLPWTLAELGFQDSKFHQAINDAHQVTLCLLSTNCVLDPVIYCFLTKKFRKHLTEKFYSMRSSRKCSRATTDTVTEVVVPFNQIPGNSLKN
Chain of Cytochrome P450 3A4 (P08684 whole entry): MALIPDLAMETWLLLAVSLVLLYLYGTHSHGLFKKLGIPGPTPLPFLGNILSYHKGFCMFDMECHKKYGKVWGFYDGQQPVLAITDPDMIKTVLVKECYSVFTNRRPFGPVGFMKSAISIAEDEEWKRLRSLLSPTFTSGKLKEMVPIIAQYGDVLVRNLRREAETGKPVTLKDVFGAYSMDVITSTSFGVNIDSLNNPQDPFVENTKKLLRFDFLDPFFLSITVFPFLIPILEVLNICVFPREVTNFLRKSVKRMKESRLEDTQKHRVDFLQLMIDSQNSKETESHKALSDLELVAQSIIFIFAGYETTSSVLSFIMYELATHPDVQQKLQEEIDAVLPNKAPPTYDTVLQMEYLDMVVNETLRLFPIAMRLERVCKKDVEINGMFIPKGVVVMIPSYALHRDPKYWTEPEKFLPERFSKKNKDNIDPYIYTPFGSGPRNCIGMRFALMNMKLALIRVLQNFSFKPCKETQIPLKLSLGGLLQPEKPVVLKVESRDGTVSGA
Chain of C-C chemokine receptor type 2 (P41597 whole entry): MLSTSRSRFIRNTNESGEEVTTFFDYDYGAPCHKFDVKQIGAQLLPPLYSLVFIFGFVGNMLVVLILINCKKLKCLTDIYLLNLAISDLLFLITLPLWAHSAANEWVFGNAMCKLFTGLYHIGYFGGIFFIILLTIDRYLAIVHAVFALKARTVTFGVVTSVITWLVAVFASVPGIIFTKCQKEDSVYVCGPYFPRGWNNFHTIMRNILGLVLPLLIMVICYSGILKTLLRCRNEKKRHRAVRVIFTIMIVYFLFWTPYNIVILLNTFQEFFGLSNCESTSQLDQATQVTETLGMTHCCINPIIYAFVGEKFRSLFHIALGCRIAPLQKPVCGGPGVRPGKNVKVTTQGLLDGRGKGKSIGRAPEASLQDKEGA

Row | SMILES | IC50 (Cytochrome P450 3A4) | Ki (Cytochrome P450 3A4) | IC50 [1] | IC50 [2] | IC50 [3] | IC50 [4] | Ki [4] | IC50 [5] | IC50 (Carbonic anhydrase 2) | IC50 ([4]; read-out: IC50) | Ki ([4]; read-out: Ki)
1 | O=C(c1ccccc1C(F)(F)F)N1CCC(Cc2ccccc2)CC1 | Not Active | Not Active | Not Active | Not Active | Not Active | Not Active | Not Active | Not Active | Not Active |  | 
2 | O=C/C=C/c1ccccc1 | Not Active | Not Active | Not Active | Not Active | Not Active | Not Active | Not Active | Not Active | Not Active |  | 
3 | Nc1ccc2c3c(cccc13)C(=O)NC2=O | Not Active | Not Active | Not Active | Not Active | Not Active | Not Active | Not Active | Not Active | Not Active |  | 
4 | COc1ccc(C(=O)N2CCCC2=O)cc1 | Not Active | Not Active | Not Active | Not Active | Not Active | Not Active | Not Active | Not Active | Not Active |  | 
5 | O=c1cnn([C@@H]2O[C@H](CO)[C@@H](O)[C@H]2O)c(=O)[nH]1 [6-AZAURIDINE] | Not Active | Not Active | Not Active | Not Active | Not Active | Not Active | Not Active | Not Active | Not Active |  | 
6 | CC[C@H](C)[C@H]1O[C@]2(C=C[C@@H]1C)C[C@@H]1C[C@@H](C/C=C(\C)[C@@H](O[C@H]3C[C@H](OC)[C@@H](O[C@H]4C[C@H](OC)[C@@H](O)[C@H](C)O4)[C@H](C)O3)[C@@H](C)/C=C/C=C3\CO[C@@H]4[C@H](O)C(C)=C[C@@H](C(=O)O1)[C@]34O)O2.CO[C@H]1C[C@H](O[C@H]2[C@H](C)O[C@@H](O[C@@H]3/C(C)=C/C[C@@H]4C[C@@H](C[C@]5(C=C[C@H](C)[C@@H](C(C)C)O5)O4)OC(=O)[C@@H]4C=C(C)[C@@H](O)[C@H]5OC/C(=C\C=C\[C@@H]3C)[C@]54O)C[C@@H]2OC)O[C@@H](C)[C@@H]1O [ABAMECTIN] | Not Active | Not Active | Not Active | Not Active | Not Active | Not Active | Not Active | Not Active | Not Active |  | 
7 | NCCCC(O)(P(=O)(O)O)P(=O)(O)O [ALENDRONIC ACID] |  |  | Not Active | Not Active | Not Active | Not Active | Not Active | Not Active | Not Active |  | 
8 | Cc1nnc2n1-c1ccc(Cl)cc1C(c1ccccc1)=NC2 [ALPRAZOLAM] | Not Active | Not Active | Not Active | Not Active | Not Active | Not Active | Not Active | Not Active | Not Active |  | 
9 | Cn1c(=O)c2[nH]cnc2n(C)c1=O.Cn1c(=O)c2[nH]cnc2n(C)c1=O.NCCN [AMINOPHYLLINE] | Not Active | Not Active | Not Active | Not Active | Not Active | Not Active | Not Active | Not Active | Not Active |  | 
10 | CCC1(CCC(C)C)C(=O)NC(=O)NC1=O [AMOBARBITAL] | Not Active | Not Active | Not Active | Not Active | Not Active | Not Active | Not Active | Not Active | Not Active |  | 
11 | CC1(C)S[C@@H]2[C@H](NC(=O)[C@H](N)c3ccccc3)C(=O)N2[C@H]1C(=O)O [AMPICILLIN] | Not Active | Not Active | Not Active | Not Active | Not Active | Not Active | Not Active | Not Active | Not Active |  | 
12 | COc1ccc(C2C(=O)c3ccccc3C2=O)cc1 [ANISINDIONE] | Not Active | Not Active | Not Active | Not Active | Not Active | Not Active | Not Active | Not Active | Not Active |  | 
13 | O=C1O[C@H]([C@@H](O)CO)C(O)=C1O [ASCORBIC ACID] | Not Active | Not Active | Not Active | Not Active | Not Active | Not Active | Not Active | Not Active | Not Active |  | 
14 | CN1[C@@H]2CC[C@H]1C[C@@H](OC(=O)C(CO)c1ccccc1)C2 (some centres undefined) [ATROPINE] |  |  | Not Active | Not Active | Not Active | Not Active | Not Active |  | Not Active |  | 
15 | CC(C(=O)O)c1ccc2oc(-c3ccc(Cl)cc3)nc2c1 (centres undefined) [BENOXAPROFEN] | Not Active | Not Active | Not Active | Not Active | Not Active | Not Active | Not Active | Not Active | Not Active |  | 
16 | COc1ccc2cc3[n+](cc2c1OC)CCc1cc2c(cc1-3)OCO2.[Cl-] [BERBERINE CHLORIDE] | Not Active | Not Active | Not Active | Not Active | Not Active |  |  | Not Active | Not Active | 95 nM | 59 nM
17 | O=C(O)CCNC(=O)c1ccccc1 [BETAMIPRON] | Not Active | Not Active | Not Active | Not Active | Not Active | Not Active | Not Active | Not Active | Not Active |  | 
18 | CC(=O)Oc1ccc(C(c2ccc(OC(C)=O)cc2)c2ccccn2)cc1 [BISACODYL] | Not Active | Not Active | Not Active | Not Active | Not Active | Not Active | Not Active | Not Active | Not Active |  | 
19 | CN/C(=N\CCSCc1nc[nH]c1C)NC#N [CIMETIDINE] |  |  | Not Active | Not Active | Not Active | Not Active | Not Active | Not Active | Not Active |  | 
20 | COc1cc(N)c(Cl)cc1C(=O)NC1CCN(CCCOc2ccc(F)cc2)CC1OC (centres undefined) [CISAPRIDE] |  |  | Not Active | Not Active | Not Active |  |  | Not Active | Not Active | 177 nM | 109 nM
21 | C[C@@H]1C[C@H]2[C@@H]3CCC4=CC(=O)C=C[C@]4(C)[C@@]3(F)[C@@H](O)C[C@]2(C)[C@@]1(O)C(=O)CO [DEXAMETHASONE] |  |  | Not Active | Not Active | Not Active | Not Active | Not Active | Not Active | Not Active |  | 
22 | COc1cc([C@@H]2c3cc4c(cc3[C@@H](O[C@@H]3O[C@@H]5CO[C@@H](C)O[C@H]5[C@H](O)[C@H]3O)[C@H]3COC(=O)[C@H]23)OCO4)cc(OC)c1O [ETOPOSIDE] |  |  | Not Active | Not Active | Not Active | Not Active | Not Active | Not Active | Not Active |  | 
23 | COc1ccc2c3c1O[C@H]1C[C@@H](O)C=C[C@@]31CCN(C)C2 [GALANTAMINE] |  |  | Not Active | Not Active | Not Active | Not Active | Not Active | Not Active | Not Active |  | 
24 | CC(C)=CCC/C(C)=C/CO [GERANIOL] |  |  | Not Active | Not Active | Not Active | Not Active | Not Active | Not Active | Not Active |  | 
25 | CC(=O)[C@@]1(O)CC[C@H]2[C@@H]3CCC4=CC(=O)CC[C@]4(C)[C@H]3CC[C@@]21C [HYDROXYPROGESTERONE] |  |  | Not Active | Not Active | Not Active | Not Active | Not Active | Not Active | Not Active |  | 
26 | COC1=C(OC)C(=O)C(CCCCCCCCCCO)=C(C)C1=O [IDEBENONE] |  |  | Not Active | Not Active | Not Active | Not Active | Not Active | Not Active | Not Active |  | 
27 | CC(C)NCC(O)COc1cccc2[nH]ccc12 (centres undefined) [PINDOLOL] |  |  | Not Active | Not Active | Not Active | Not Active | Not Active | Not Active | Not Active |  | 
28 | CCCNCC(O)COc1ccccc1C(=O)CCc1ccccc1 (centres undefined) [PROPAFENONE] |  |  | Not Active | Not Active | Not Active | Not Active | Not Active | Not Active | Not Active |  | 
29 | CC(C)c1cccc(C(C)C)c1O [PROPOFOL] |  |  | Not Active | Not Active | Not Active | Not Active | Not Active | Not Active | Not Active |  | 
